Bounds are passed on as bounds.

Assay [1] addresses Nucleic Acid. Put plainly: Displacement of fluorescent pyrene-neomycin conjugate from tau stem-loop RNA. In kind it is nucleic-acid assay.
In assay [2] the target is Nucleic Acid. Put plainly: Binding affinity to tau stem-loop RNA assessed as inhibition of RNA stem-loop unfolding. In kind it is nucleic-acid assay.

The EC50 is the concentration that produces a half-maximal response. A lower EC50 goes with a more potent agent. By IC50 is commonly meant the midpoint of a concentration-inhibition curve. Molecule `O=C1c2c(NCCNCCO)ccc(NCCNCCO)c2C(=O)c2c(NCCNCCO)ccc(NCCNCCO)c21` registered an EC50 at Nucleic Acid [1] of 1200 nM. Further, the IC50 on Nucleic Acid [2] was 340 nM.

`Nc1ccc(N)c2c1C(=O)c1c(O)ccc(O)c1C2=O`: the EC50 at Nucleic Acid [1] was > 100000 nM. In addition, the concentration for half-maximal inhibition (IC50) at Nucleic Acid [2] was > 100000 nM.

With `NCCNCCNCCNc1ccc(NCCNCCNCCN)c2c1C(=O)c1c(O)ccc(O)c1C2=O`, the EC50 on Nucleic Acid [1] was 130 nM. Moreover, at Nucleic Acid [2], the IC50 was determined as 130 nM.

In turn, `CC(C)(C)OC(=O)NCCNCCNc1ccc(NCCNCCO)c2c1C(=O)c1c(O)ccc(O)c1C2=O` came in with an EC50 at Nucleic Acid [1] of 12000 nM. Also, the IC50 at Nucleic Acid [2] was found to be 2400 nM.

As to `NCCNCCNc1ccc(NCCNCCN)c2c1C(=O)c1c(O)ccc(O)c1C2=O`, the concentration for a half-maximal effect (EC50) at Nucleic Acid [1] amounted to 160 nM. The IC50 on Nucleic Acid [2] was 130 nM.

With `Nc1ccc(NCCNCCO)c2c1C(=O)c1c(O)ccc(O)c1C2=O`, the EC50 at Nucleic Acid [1] was determined as 29000 nM. Further, the IC50 at Nucleic Acid [2] came out at 5800 nM.

On to `O=C1c2c(O)ccc(NCCNCCO)c2C(=O)c2c(NCCNCCO)ccc(O)c21`, for which the EC50 at Nucleic Acid [1] came to 4400 nM. Also, the half-maximal inhibitory concentration (IC50) on Nucleic Acid [2] stood at 1500 nM.

As to `NCCNCCNc1ccc(NCCNCCO)c2c1C(=O)c1c(O)ccc(O)c1C2=O`, the EC50 at Nucleic Acid [1] came to 310 nM. On Nucleic Acid [2], the IC50 was determined as 180 nM.

`O=C1c2c(O)ccc(O)c2C(=O)c2c(NCCOCCO)ccc(NCCNCCO)c21` came in with a 50% effective concentration (EC50) on Nucleic Acid [1] of 14000 nM. Besides, on Nucleic Acid [2], the concentration for half-maximal inhibition (IC50) was found to be 5700 nM.

`O=C1c2c(O)ccc(NCCNCCO)c2C(=O)c2c(NCCNCCO)ccc(NCCNCCO)c21` yielded a 50% effective concentration (EC50) on Nucleic Acid [1] of 800 nM. Also, the concentration for half-maximal inhibition (IC50) at Nucleic Acid [2] was 420 nM.

On Nucleic Acid [1], `O=C1c2c(F)ccc(F)c2C(=O)c2c(NCCNCCO)ccc(NCCNCCO)c21` gave an EC50 of 16000 nM. Also, on Nucleic Acid [2], the IC50 came to 2300 nM.

Take `NCCNCCNCCNc1ccc(NCCNCCO)c2c1C(=O)c1c(O)ccc(O)c1C2=O`: a half-maximal response at Nucleic Acid [1] (EC50) required 380 nM. The half-inhibitory concentration (IC50) at Nucleic Acid [2] came out at 230 nM.

For `O=C1c2c(O)ccc(O)c2C(=O)c2c(NCCNCCO)ccc(F)c21`, the EC50 on Nucleic Acid [1] came out at 75000 nM. Further, the half-maximal inhibitory concentration (IC50) on Nucleic Acid [2] came out at 5700 nM.

`Nc1ccc(N)c2c1C(=O)c1c(N)ccc(N)c1C2=O`: the EC50 on Nucleic Acid [1] was > 100000 nM. The half-inhibitory concentration (IC50) at Nucleic Acid [2] is > 100000 nM.

As for `Nc1ccc(O)c2c1C(=O)c1c(N)ccc(O)c1C2=O`, the EC50 at Nucleic Acid [1] was > 100000 nM. In addition, the IC50 at Nucleic Acid [2] was > 100000 nM.

`O=C1c2c(O)ccc(O)c2C(=O)c2c(NCCNCCO)ccc(NCCNCCO)c21` [MITOXANTRONE] registered a concentration giving a half-maximal response (EC50) at Nucleic Acid [1] of 890 nM. In addition, the IC50 at Nucleic Acid [2] is 460 nM.
